Each structure is given as a SMILES string. “And” between values parts separate entries of the source, which are not always exact repeats. Equal entries are not always repeated.

The nature of the experiment: RORgamma Gal4 Reporter Gene Assay (REN): Cells were incubated for additional 16 h before renilla (REN) luciferase activities were measured sequentially in the same cell extract using a Dual-Light-Luciferase-Assay system (Dyer et al., Anal. Biochem. 2000, 282:158). All experiments were done at least in triplicates. In general terms: In a reporter assay the amount or activity of a reporter protein is the signal.
One may read the IC50 as the concentration that gives 50% inhibition. The compound `CC1CCN(C(=O)c2nc(C(=O)NCC(C)(C)O)sc2-c2ccc(S(=O)(=O)NCC(C)(C)O)c3ccccc23)CC1` showed an IC50 of 1580 nM.
Next, `CC1CCN(C(=O)c2nc(C(=O)NCC(C)(C)O)sc2-c2ccc(S(=O)(=O)N[C@@H](C)C(F)(F)F)c3ccccc23)CC1`: 20 nM; `CC(C)(C)NS(=O)(=O)c1ccc(-c2sc(C(=O)NCCN3CCOCC3)nc2CC2CCCCC2)cc1C(C)(C)O`: 200 nM.
Next, `CC(C)(O)CNC(=O)c1nc(CC2CCCCC2)c(-c2ncc(S(=O)(=O)NC(C)(C)C)c3ccccc23)s1`: 20 nM; `CC1(c2cc(-c3sc(C(=O)N[C@H]4C[C@H](C(=O)O)C4)nc3CC3CCCCC3)cc(C(F)(F)F)c2)CC1`: 79.4 nM.
Next, `CC(C)(C)NS(=O)(=O)c1ccc(-c2sc(C(=O)NC3CS(=O)(=O)C3)nc2CC2CCCCC2)cc1C(C)(C)O`: 12.6 nM; `CC(C)(C)c1cc(-c2oc(C(=O)NC3CCOCC3)nc2CC2CCCCC2)cc(C2(C)CC2)c1`: 126 nM.
The compound `CC(C)(C)NS(=O)(=O)c1ccc(-c2sc(C(=O)NC3COC3)nc2CC2CCCCC2)c(Cl)c1Cl` registered an IC50 of 3.16 nM.
Next, `COC(c1nc(C(=O)N[C@H]2C[C@H](C(=O)O)C2)sc1-c1cc(C(C)(C)C)cc(C2(C)CC2)c1)C1CCCCC1` (some centres not stated): 100 nM; `CC(C)(C)c1cc(-c2sc(C(=O)N[C@H]3C[C@H](C(=O)O)C3)nc2CC2CCCCC2)cc(C(C)(F)F)c1`: 39.8 nM; `CC(C)(C)NS(=O)(=O)c1ccc(-c2sc(C(=O)N[C@H]3C[C@H](C(=O)O)C3)nc2CC2CCCCC2)c2c1CCC2`: 3.16 nM.
Next, `CC(C)(C)NS(=O)(=O)c1ccc(-c2sc(C(=O)NC3CCS(=O)(=O)CC3)nc2CC2CC2)c(Cl)c1Cl`: 31.6 nM; `CC1CCCCN1C(=O)c1nc(C(=O)NCC(C)(C)O)sc1-c1ccc(S(=O)(=O)NC(C)(C)C)c2ccccc12` (configuration not stated): 50.1 nM.
`CC(C)(C)NS(=O)(=O)c1ccc(-c2sc(C(=O)NC3CCS(=O)(=O)CC3)nc2-c2cccc(Cl)c2)c2ccccc12` displayed an IC50 of 6.31 nM. This IC50 lies about 7.9-fold lower than the previous one.
As for `CN(C(=O)c1nc(CC2CCCCC2)c(-c2cc(C(C)(C)C)cc(C3(C)CC3)c2)s1)C1CCOCC1`, half-maximal inhibition (IC50) was put at 126 nM.
Next, `C[C@H](NS(=O)(=O)c1ccc(-c2sc(C(=O)NCC(C)(C)O)nc2CC2CCC2)c(C(F)(F)F)c1)C(F)(F)F`: 20 nM.
Next, `CC(C)(C)NS(=O)(=O)c1ccc(-c2sc(C(=O)NC3C[S+]([O-])C3)nc2CC2CCCCC2)cc1C(C)(C)O` (configuration not stated): 10 nM and 50.1 nM.
`CC(C)(C)NS(=O)(=O)c1ccc(-c2sc(C(=O)NC3CCOCC3)nc2CC2CCCCC2)cc1C(C)(C)O` returned an IC50 of 20 nM.
Next, `CC(C)(C)NS(=O)(=O)c1ccc(-c2sc(C(=O)NN3CCS(=O)(=O)CC3)nc2CC2CCCCC2)c(Cl)c1Cl`: 2 nM; `CC(C)(C)NS(=O)(=O)c1ccc(-c2sc(C(=O)NC34CCC(C(=O)O)(CC3)CC4)nc2CC2CCCCC2)c2ccccc12`: 6.31 nM.
Next, `CC(C)(C)NS(=O)(=O)c1ccc(-c2sc(C(=O)NC3CCS(=O)(=O)CC3)nc2C2CCCCC2)c2ccccc12`: 6.31 nM; `CC(C)(C)c1cc(-c2nc(C(=O)NC3CCS(=O)(=O)CC3)oc2CC2CCCCC2)cc(C2(C)CC2)c1`: 251 nM.
Next, `CC(C)(C)c1cc(-c2sc(S(N)(=O)=O)nc2CC2CCCCC2)cc(C(C)(C)C)c1`: 398 nM.
The compound `CC(C)(C)NS(=O)(=O)c1ccc(-c2sc(C(=O)NCCC(C)(C)C(=O)O)nc2CC2CCCCC2)c(Cl)c1Cl` came in with a half-maximal inhibitory concentration (IC50) of 6.31 nM.
Next, `COC(c1nc(C(=O)NC2CCOCC2)sc1-c1ccc(S(=O)(=O)NC(C)(C)C)c(C(C)(C)C)c1)C1CCCCC1` (configuration not stated): 200 nM; `CC(C)(C)NS(=O)(=O)c1ccc(-c2sc(C(=O)NCC3(C(=O)O)CCOCC3)nc2CC2CCCCC2)c(Cl)c1Cl`: 39.8 nM; `Cc1c(C(=O)NC(C)(C)C)cc(-c2sc(C(=O)N[C@H]3C[C@H](C(=O)O)C3)nc2CC2CCCCC2)cc1C1(C)CC1`: 158 nM.
